Results taken from US10208056B2, “Condensed tricyclic compounds as protein kinase inhibitors” (FUNDACIÓN DEL SECTOR PÚBLICO ESTATAL CENTRO NACIONAL DE …, priority 2015, dated 2019).
pIC50: −log10 of the molar value.

What was measured:
CDK8/Cyclin C = CDK8/Cyclin C (Homo sapiens (Human), UniProt P49336); test: CDK8/Cyclin C binding assay (LanthaScreen Eu-Kinase Binding Assay); conditions: binding assay
Method: The enzyme has been purchase from Invitrogen (PV4402) as a dimer of full-length His-tagged recombinant human proteins.
(§1) Assays were performed in 384-well plates. The final read out was generated using an EnVision plate reader (Perkin-Elmer).

Haspin kinase = Haspin kinase (Homo sapiens (Human), UniProt Q8TF76); test: Haspin kinase assay (ADP-Glo); assay type: biochemical; conditions: ATP 150 μM
Excerpt: The kinase assay relies on ADP-Glo^KM biochemical kinase assay (Promega). This is a luminescent kinase assay that measures ADP formed from a kinase reaction. Then ADP is converted into ATP, which is transformed into a light signal by Ultra-Glo™ Luciferase. The luminescent signal positively correlates with kinase activity. The assay measures the intrinsic ATPase activity (in the absence of peptidic substrate as phosphate acceptor).
The enzyme was purchase from Invitrogen (PV5708) as the kinase domain of GST tagged recombinant human proteins.
Assay conditions were as indicated by the kit manufacturers with the following adaptations: • Assay buffer: 15 mM HEPES pH 7.4, 20 mM NaCl, 1 mM EGTA, 0.02% Tween 20, 10 mM MgCl2, 0.1 mg/ml BGG • Assay volume: 20 μl • Incubation time and temperature: 60 min at 30° C. • Haspin concentration: 20 nM • ATP concentration: 150 μM • Tested compound: Serial 1:3 dilutions • Final DMSO concentration in the assay: 1%
Assays were performed in 384-well plates. The final read out was generated using an EnVision plate reader (Perkin-Elmer). Luminescent relative units are normalized against the control activity included for each compound (i.e., 100% Haspin activity, without compound) and the percentage of inhibition is calculated.

CDK19/Cyclin C = CDK19/Cyclin C (Homo sapiens (Human), UniProt Q9BWU1); test: CDK19/Cyclin C binding assay (LanthaScreen Eu-Kinase Binding Assay); conditions: read-out: CDK19-CYCC IC50
Method: The binding assay relies on the LanthaScreen™ Eu-Kinase Binding Assay (Invitrogen).
Assay conditions were as indicated by the kit manufacturers with the following adaptations: • Assay buffer: 50 mM HEPES, pH 7.5, 1 mM EGTA, 0.01% Brij-35, 10 mM MgCl2 • Assay volume: 20 μl • Incubation time and temperature: 60 min at 25° C. • Cdk19-Cyclin C concentration: 2 nM • Tracer concentration: 20 nM • (Eu)-labelled anti-GST antibody concentration: 2 nM • Tested compound: Serial 1:3 dilutions • Final DMSO concentration in the assay: 1%
as §1

Chain of Haspin kinase (Q8TF76 484-798): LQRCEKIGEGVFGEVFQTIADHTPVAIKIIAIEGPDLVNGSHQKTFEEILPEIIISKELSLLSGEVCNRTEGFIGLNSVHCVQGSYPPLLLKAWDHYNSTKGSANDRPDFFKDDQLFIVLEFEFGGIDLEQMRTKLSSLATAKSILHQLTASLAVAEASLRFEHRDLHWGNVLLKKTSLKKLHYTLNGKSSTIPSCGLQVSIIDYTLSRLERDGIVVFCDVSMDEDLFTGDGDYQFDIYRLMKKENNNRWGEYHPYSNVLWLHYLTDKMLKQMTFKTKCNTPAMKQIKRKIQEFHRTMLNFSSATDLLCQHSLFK
Chain of CDK8/Cyclin C (P49336 whole entry): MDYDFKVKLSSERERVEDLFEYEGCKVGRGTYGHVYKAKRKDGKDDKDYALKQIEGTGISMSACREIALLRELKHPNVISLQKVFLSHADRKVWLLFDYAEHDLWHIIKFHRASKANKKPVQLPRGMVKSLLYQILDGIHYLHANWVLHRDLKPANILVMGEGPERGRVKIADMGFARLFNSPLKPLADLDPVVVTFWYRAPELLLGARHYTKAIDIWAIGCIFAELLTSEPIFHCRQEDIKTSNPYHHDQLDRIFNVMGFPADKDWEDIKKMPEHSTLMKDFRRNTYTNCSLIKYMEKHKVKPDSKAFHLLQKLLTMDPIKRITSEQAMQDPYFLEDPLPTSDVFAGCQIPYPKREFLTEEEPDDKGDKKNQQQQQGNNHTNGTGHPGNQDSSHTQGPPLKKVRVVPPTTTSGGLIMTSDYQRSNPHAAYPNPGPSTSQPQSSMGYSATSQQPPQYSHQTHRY
Chain of CDK8/Cyclin C (P24863 whole entry partner): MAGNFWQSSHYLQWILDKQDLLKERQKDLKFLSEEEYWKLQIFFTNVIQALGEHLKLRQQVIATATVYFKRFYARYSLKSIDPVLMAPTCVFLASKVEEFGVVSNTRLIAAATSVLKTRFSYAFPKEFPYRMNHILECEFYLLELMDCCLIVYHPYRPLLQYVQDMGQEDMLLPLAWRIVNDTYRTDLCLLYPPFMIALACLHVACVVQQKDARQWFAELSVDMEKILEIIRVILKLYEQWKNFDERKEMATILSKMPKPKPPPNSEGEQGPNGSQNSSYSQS
Chain of CDK19/Cyclin C (Q9BWU1 whole entry): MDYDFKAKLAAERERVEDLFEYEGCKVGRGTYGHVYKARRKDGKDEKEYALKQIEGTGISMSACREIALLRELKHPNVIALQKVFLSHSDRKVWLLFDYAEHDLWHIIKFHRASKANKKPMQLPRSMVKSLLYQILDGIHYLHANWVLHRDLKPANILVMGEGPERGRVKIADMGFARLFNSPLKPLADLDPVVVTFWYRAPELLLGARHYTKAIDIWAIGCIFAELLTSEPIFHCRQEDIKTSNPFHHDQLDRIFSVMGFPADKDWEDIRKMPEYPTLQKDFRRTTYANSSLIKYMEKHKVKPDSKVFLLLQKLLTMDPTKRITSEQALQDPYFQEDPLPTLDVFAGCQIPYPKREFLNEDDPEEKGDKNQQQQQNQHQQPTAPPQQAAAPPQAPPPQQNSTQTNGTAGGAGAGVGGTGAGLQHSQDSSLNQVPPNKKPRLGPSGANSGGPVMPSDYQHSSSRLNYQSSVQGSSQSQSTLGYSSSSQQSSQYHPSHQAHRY
Chain of CDK19/Cyclin C (P24863 whole entry partner): as the sequence (P24863 whole entry partner) above

Structure (SMILES)	pIC50 (CDK8/Cyclin C)	pIC50 (Haspin kinase)	pIC50 (CDK19/Cyclin C)
COC(=O)c1[nH]c2c(c1-c1ccc(S(N)(=O)=O)cc1)C(C)(C)Oc1cnccc1-2 [LXX]	5.55		
Cn1c(C(N)=O)cc2c1-c1c(Cl)cncc1OC2(C)C [Example 41]	7.26	5.88	6.80
CC1(C)Oc2cnccc2-c2[nH]c(C(=O)O)c(Br)c21 [Example 29]	7.28	7.05	6.69
CCn1c(C(=O)O)cc2c1-c1ccncc1OC2(C)C [Example 44]	6.51	5.17	
CC1(C)Oc2cnccc2-c2c1cc(C(=O)O)n2Cc1ccccc1 [Example 24]	5.00	4.69	
NC(=O)c1cc2c([nH]1)-c1ccncc1OC21CCN(CCCC(F)(F)F)CC1 [Example 48]	6.05	6.33	
NC(=O)c1cc2c([nH]1)-c1ccncc1OC21CCN(C2CC2)CC1 [Example 16]	5.24	5.37	
CC1(C)Oc2cnccc2-c2[nH]c(C(N)=O)c(-c3ccc(S(N)(=O)=O)cc3)c21 [Example 32]	7.58	6.63	7.09
CC(C)(C)OC(=O)N1CCC(NC(=O)c2cc3c([nH]2)-c2ccncc2OC3(C)C)CC1 [Example 5]	5.73	4.74	
CC(C)n1c(C(N)=O)cc2c1-c1ccncc1OC2(C)C [Example 25]	5.23	4.65	
CCn1c(C(N)=O)cc2c1-c1ccncc1O[C@H]2C1CCOCC1 (single isomer, unassigned) [Example 95]	> 8.85		
CC(C)n1c(C(=O)O)cc2c1-c1ccncc1OC2(C)C [Example 26]	5.23	4.31	
CC1(C)Oc2cnccc2-c2[nH]c(C(=O)N3CCOCC3)cc21 [Example 21]	6.17	6.06	
COc1ccccc1-c1c(C(N)=O)[nH]c2c1C(C)(C)Oc1cnccc1-2 [Example 63]	7.26	5.40	6.64
Cn1c(C(=O)O)cc2c1-c1ccncc1OC2(C)C [Example 23]	7.21	6.19	6.63
CC(C)NC(=O)c1cc2c([nH]1)-c1ccncc1OC2(C)C [Example 6]	5.62	5.75	
NC(=O)c1cc2c([nH]1)-c1ccncc1OC21CCOCC1 [Example 20]	7.26	6.69	6.68
CC(=O)N1CCC2(CC1)Oc1cnccc1-c1[nH]c(C(N)=O)cc12 [Example 77]	8.13	6.73	
CC1(C)Oc2c(ccnc2Cl)-c2[nH]c(C(=O)O)cc21 [Example 37]	5.20	5.78	
CCn1c(C(N)=O)c(-c2ccccc2C(F)(F)F)c2c1-c1ccncc1OC2(C)C [Example 75]	7.84	6.63	7.78
CC1(C)Oc2cncc(-c3ccccc3)c2-c2[nH]c(C(N)=O)cc21 [Example 39]	6.69	5.63	
CC1(C)Oc2cnccc2-c2[nH]c(C(N)=O)c(-c3ccccc3)c21 [Example 31]	7.53	7.14	6.97
CC(C)C1(C)Oc2cnccc2-c2[nH]c(C(N)=O)cc21 (centres unmarked) [Example 54]	7.51	7.28	7.01
CCn1c(C(N)=O)c(Cl)c2c1-c1ccncc1OC21CCOCC1 [Example 104]	8.62	8.05	
CC1(C)Oc2cnccc2-c2[nH]c(C(N)=O)c(-c3ccccc3C(F)(F)F)c21 [Example 74]	6.68	6.13	
COc1ccccc1-c1c2c(n(CCF)c1C(=O)NCCF)-c1ccncc1OC2(C)C [Example 78]	6.32	4.48	
CNC(=O)c1cc2c([nH]1)-c1ccncc1OC2(C)C [Example 3]	7.04	6.74	6.49

Structure (SMILES)	pIC50 (CDK8/Cyclin C)	pIC50 (Haspin kinase)	pIC50 (CDK19/Cyclin C)
CCN(CC)C(=O)c1cc2c([nH]1)-c1ccncc1OC2(C)C [Example 9]	6.01	5.63	
CC1(C)Oc2cnccc2-c2[nH]c(C(=O)NCCc3ccccc3)cc21 [Example 11]	6.79	6.38	
CC1(C)Oc2cnc(Cl)cc2-c2[nH]c(C(N)=O)cc21 [Example 38]	6.34	5.17	
O=C(O)c1cc2c([nH]1)-c1ccncc1OC21CCN(C2CC2)CC1 [Example 17]	5.82	5.22	
CC1(C)Oc2cnccc2-c2[nH]c(C(=O)Nc3ccccc3)cc21 [Example 4]	5.28	5.12	
CCN1CCC2(CC1)Oc1cnccc1-c1[nH]c(C(N)=O)cc12 [Example 42]	6.71	6.82	
CCn1c(C(N)=O)cc2c1-c1ccncc1OC21CCC1 [Example 66]	9.72		8.85
CC1(C)Oc2cnccc2-c2[nH]c(C(=O)NC3CCNCC3)cc21 [Example 10]	5.45	5.76	
O=C(O)c1cc2c([nH]1)-c1ccncc1OC21CCN(CC(F)(F)F)CC1 [Example 19]	6.19	5.53	
CC1(C)Oc2cnccc2-c2[nH]c(C(=O)NCc3ccccc3)cc21 [Example 8]	6.47	6.52	
COC(=O)c1[nH]c2c(c1-c1ccccc1)C(C)(C)Oc1cnccc1-2 [LXIX]	5.70		
NC(=O)c1cc2c([nH]1)-c1ccncc1OC21CCN(CCC(F)(F)F)CC1 [Example 47]	6.92	6.33	
CC1(C)Oc2c(ccnc2Cl)-c2[nH]c(C(N)=O)cc21 [Example 36]	6.25	6.53	
COCCn1c(C(=O)O)cc2c1-c1ccncc1OC2(C)C [Example 27]	5.00	4.30	
CCn1c(C(N)=O)c(Cl)c2c1-c1ccncc1OC21CCCCC1 [Example 105]	> 8.85	8.05	
COCCNC(=O)c1cc2c([nH]1)-c1ccncc1OC2(C)C [Example 7]	5.83	5.99	
CC1(C2(C)Oc3cnccc3-c3[nH]c(C(N)=O)cc32)COC1 (centres unmarked) [Example 49]	6.50	5.24	
CC1(C)Oc2cnccc2-c2[nH]c(C(N)=O)c(-c3ccc(F)cc3)c21 [Example 50]	6.24	6.11	
CC1(C)Oc2cnccc2-c2[nH]c(C(N)=O)c(-c3cccc(S(N)(=O)=O)c3)c21 [Example 40]	6.57	6.60	
COC(=O)c1cc2c([nH]1)-c1ccncc1OC2(C)C [VIII]	6.17		
NC(=O)c1cc2c(n1CCF)-c1ccncc1OC21CCOCC1 [Example 92]	> 8.85	7.59	
COc1cccc(-c2c(C(N)=O)[nH]c3c2C(C)(C)Oc2cnccc2-3)c1 [Example 85]	6.90	6.59	
CC1(C)Oc2cnccc2-c2[nH]c(C(=O)O)cc21 [Example 2]	6.84	6.51	
COC(=O)c1[nH]c2c(c1Br)C(C)(C)Oc1cnccc1-2 [LXVIII]	6.11		
CCn1c(C(N)=O)c(C2CC2)c2c1-c1ccncc1OC2(C)C [Example 94]	8.58	7.76	
CC1(C)Oc2cnccc2-c2[nH]c(C(N)=O)c(-c3ccccc3O)c21 [Example 64]	6.95	6.18	
CCn1c(C(N)=O)cc2c1-c1ccncc1O[C@@H]2C1CCOCC1 (single isomer, unassigned) [Example 96]	> 8.85	6.45	
